Source: paper PMC11843613, “Further Optimization of the mGlu1 PAM VU6024578/BI02982816: Discovery and Characterization of VU6033685” (ACS Chemical Neuroscience, 2025)
“And” between values parts separate entries of the source, which are not always exact repeats. Equal values may be shown once. Read-outs that look alike come from different tables or passages of the source.

What was measured:
[1] = target: mouse mGlu1 (Mus musculus, UniProt P97772); experiment: mGlu1 PAM functional assay (mouse); assay type: cell-based
[2] = Rat amphetamine-induced hyperlocomotion (AHL) with satellite PK; assay type: in vivo; conditions: male, Sprague-Dawley, brain (unbound); for concentration at 1.25 h: sample @ 1.25 hr
Method: (§1) mode (5.0 kV spray voltage). The calibration curves were constructed in blank plasma. All data were analyzed using AB Sciex Analyst software v1.5.1.
(§2) All animal study procedures were approved by the Institutional Animal Care and Use Committee and were conducted in accordance with the National Institutes of Health regulations of animal care covered in Principles of Laboratory Animal Care (National Institutes of Health). […]
(§3) GraphPad Prism (version 4.03, GraphPad, La Jolla, CA).
(§4) Amphetamine-induced hyperlocomotion (rat)
(§5) Adult male Sprague-Dawley rats placed into the activity chambers (Med Associates). Thirty minutes after placement in the chambers, the rats were administered VU6024578 (1-10 mg/kg p.o..) or vehicle. Sixty minutes later the rats were injected with amphetamine (0.75 mg/kg s.c. 1 ml/kg) or vehicle (saline) and placed back in the activity chambers for 90 minutes. The data for the studies were analyzed by a between-group 2 way analysis of variance for compound dose and time. Each dose group was compared with the vehicle control group. The calculations were performed and graphed using GraphPad Prism (version 4.03, GraphPad, La Jolla, CA). The AUC was analyzed by a 1-way ANOVA with a Dunnett’s post hoc test. […]

[3] = test system: amphetamine-induced hyperlocomotion in rats; experiment: as above; assay type: in vivo
Method: as §1, §2, §3, §4, §5

[4] = Dose escalation PO PK study in mice; assay type: in vivo, mouse
[5] = Sprague-Dawley, in vivo

Sequence of mouse mGlu1 (P97772 19-1199 limits assumed): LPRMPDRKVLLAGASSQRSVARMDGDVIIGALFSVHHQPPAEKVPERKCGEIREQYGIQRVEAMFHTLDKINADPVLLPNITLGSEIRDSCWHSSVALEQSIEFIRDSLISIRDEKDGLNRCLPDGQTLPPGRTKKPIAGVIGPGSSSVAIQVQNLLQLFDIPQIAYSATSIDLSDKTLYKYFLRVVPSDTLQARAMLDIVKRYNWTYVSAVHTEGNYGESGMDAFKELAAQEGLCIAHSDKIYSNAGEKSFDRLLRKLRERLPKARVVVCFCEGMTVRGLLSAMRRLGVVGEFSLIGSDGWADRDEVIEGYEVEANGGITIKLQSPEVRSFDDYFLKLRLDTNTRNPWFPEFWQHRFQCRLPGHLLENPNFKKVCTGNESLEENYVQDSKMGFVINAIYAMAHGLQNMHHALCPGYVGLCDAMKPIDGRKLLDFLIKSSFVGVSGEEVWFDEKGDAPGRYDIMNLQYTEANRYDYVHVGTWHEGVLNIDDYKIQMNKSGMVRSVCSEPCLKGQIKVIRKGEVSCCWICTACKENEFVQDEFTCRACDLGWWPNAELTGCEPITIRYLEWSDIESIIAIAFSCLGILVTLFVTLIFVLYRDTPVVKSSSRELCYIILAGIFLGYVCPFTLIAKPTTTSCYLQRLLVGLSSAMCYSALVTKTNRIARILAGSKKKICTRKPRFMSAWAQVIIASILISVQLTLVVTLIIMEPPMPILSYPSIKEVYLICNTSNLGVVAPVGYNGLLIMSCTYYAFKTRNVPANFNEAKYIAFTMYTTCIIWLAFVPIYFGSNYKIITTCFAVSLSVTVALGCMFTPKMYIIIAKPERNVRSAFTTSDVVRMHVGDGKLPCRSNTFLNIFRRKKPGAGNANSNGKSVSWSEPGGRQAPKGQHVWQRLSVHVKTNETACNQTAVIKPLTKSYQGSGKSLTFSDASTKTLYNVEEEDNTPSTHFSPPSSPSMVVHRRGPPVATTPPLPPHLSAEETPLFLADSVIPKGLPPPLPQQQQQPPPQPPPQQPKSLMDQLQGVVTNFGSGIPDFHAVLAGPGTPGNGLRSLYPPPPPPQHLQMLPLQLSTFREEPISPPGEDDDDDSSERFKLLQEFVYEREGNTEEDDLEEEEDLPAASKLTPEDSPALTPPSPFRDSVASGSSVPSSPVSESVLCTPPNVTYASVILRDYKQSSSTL

For `Cc1nc(C2CC2)ccc1CNC(=O)c1cc(-n2cccn2)ccc1Cl` [compound 8], the EC50 [1] was 52 nM, the “mouse mGlu1 Glu Max” value [1] was 102% and the concentration at 1.25 h ([2]; rat PO 1 mg/kg, read-out: Brain Unbound at 1 mg/kg) was 16.1 nM. For the same compound, the concentration at 1.25 h ([2]; rat PO 3 mg/kg, read-out: Brain Unbound at 3 mg/kg) was 35.4 nM, the concentration at 2.5 h ([2]; rat PO 10 mg/kg, satellite PK, 2.5 h end of study (picture: sample @ 1.25 hr), read-out: free (unbound) brain concentration at 10 mg/kg) was 79.8 nM and the “AHL efficacy compared with positive control 3” value ([3]; rat) was “comparable efficacy to the standard 3”. The “minimum effective dose (MED) in AHL” value ([3]; rat PO) was 10 mg/kg, the “unbound brain concentration as fold of in vitro rat mGlu1 EC50 at efficacy in AHL” value ([3]; rat, 10 mg/kg MED, 10 mg/kg) was ~0.74 fold and ~0.7 fold and the “reversal of amphetamine-induced hyperlocomotion” value ([3]; rat, oral administration, amphetamine 0.75 mg/kg SC) was “dose-dependently reversed”. The “observations at >24-fold EC50 free brain” value ([4]; mouse PO) was “without any observed AEs”, the “free brain concentration as fold of mouse EC50 at 500 mg/kg” value ([4]; mouse PO 500 mg/kg) was roughly 90 fold and the “observations at 500 mg/kg” value ([4]; mouse PO 500 mg/kg) was “all animals displayed uncoordinated movements and were cold to the touch”. For the same compound, the “free brain concentration reached without AEs” value ([4]; mouse PO dose escalation) was roughly 1250 nM, the “free brain concentration as fold of mouse EC50 reached without AEs” value ([4]; mouse PO dose escalation (50, 150, 500 mg/kg)) was greater than 24 fold and the “free brain concentration (fold rat EC50) that was well tolerated” value [5] was “up to 5.3 fold”.
